# Activity calls are given as the source filed them. No cut-off for these calls is given here.
# Columns and labels:
# [1] = Drug metabolism in rat liver microsomes; type: ADME, Microsome; conditions: read-out: Drug metabolism
# [2] = Drug metabolism in mouse liver microsomes; type: ADME, Microsome; conditions: read-out: Drug metabolism
# [3] = Drug metabolism in human liver microsomes; type: ADME, Microsome; conditions: read-out: Drug metabolism
# [4] = Displacement of [3H]N-alpha-methylhistamine from rhesus monkey histamine H3 receptor transfected in CHO cells; type: cell-based, Macaca mulatta
# [5] = molecular target: Histamine H2 receptor (Homo sapiens) (UniProt P25021); assay: Binding affinity to human histamine H2 receptor
# Mus musculus [6] = assay: Antiobesity activity in po dosed diet-induced obese mouse assessed as reduction in accumulated food intake after 4 to 12 hrs; type: functional, organism-based
# Mus musculus [7] = assay: Antiobesity activity in diet-induced obese mouse assessed as reduction in accumulated food intake at 1 to 3 mg/kg, po after 12 hrs (reference value: 27.3 %); type: functional; parameters: scale not given: the % may be the effect or the level left; conditions: dose mg/kg 1-3
# Mus musculus [8] = assay: Antiobesity activity in diet-induced obese mouse assessed as reduction in accumulated food intake at 1 to 3 mg/kg, po after 6 hrs (reference value: 0.1 %); type: functional; parameters: scale not given: the % may be the effect or the level left; conditions: dose mg/kg 1-3
# Mus musculus [9] = assay: Antiobesity activity in diet-induced obese mouse assessed as reduction in accumulated food intake at 1 to 3 mg/kg, po after 4 hrs (reference value: -4.7 %); type: functional; parameters: scale not given: the % may be the effect or the level left; conditions: dose mg/kg 1-3
# [10] = molecular target: Voltage-gated inwardly rectifying potassium channel KCNH2 (Homo sapiens, UniProt Q12809); assay: Inhibition of human ERG channel
# [11] = Solubility of the compound; type: physicochemical
# Histamine H1 receptor = Histamine H1 receptor (Homo sapiens, UniProt P35367); assay: Binding affinity to human histamine H1 receptor
# [12] = Antagonist activity at rhesus monkey histamine H3 receptor by GTPgammaS binding assay; parameters: species or system Macaca mulatta
# Histamine H3 receptor [13] = molecular target: Histamine H3 receptor (Rattus norvegicus, UniProt Q9QYN8); assay: Displacement of [3H]N-alpha-methylhistamine from rat histamine H3 receptor
# Histamine H3 receptor [14] = molecular target: T1, Histamine H3 receptor (Homo sapiens, UniProt Q9Y5N1); assay: Displacement of [3H]N-alpha-methylhistamine from human histamine H3 receptor
# [15] = Apparent permeability across human Caco2/TC7 cells; type: ADME, cell-based; conditions: Caco-2
# hERG (KCNH2) [16] = molecular target: T2, hERG (KCNH2) (Homo sapiens, UniProt Q12809); assay: Inhibition of human ERG channel at 10 uM
# hERG (KCNH2) [17] = molecular target: T2, hERG (KCNH2); assay: Inhibition of human ERG channel at 1 uM
# Histamine H3 receptor [18] = molecular target: T1, Histamine H3 receptor; assay: Antagonist activity at human histamine H3 receptor at 10 uM by GTPgammaS binding assay; type: functional
# Histamine H3 receptor [19] = molecular target: T1, Histamine H3 receptor; assay: Antagonist activity at human histamine H3 receptor by FLIPR assay
# T1 sequence (Q9Y5N1 whole entry): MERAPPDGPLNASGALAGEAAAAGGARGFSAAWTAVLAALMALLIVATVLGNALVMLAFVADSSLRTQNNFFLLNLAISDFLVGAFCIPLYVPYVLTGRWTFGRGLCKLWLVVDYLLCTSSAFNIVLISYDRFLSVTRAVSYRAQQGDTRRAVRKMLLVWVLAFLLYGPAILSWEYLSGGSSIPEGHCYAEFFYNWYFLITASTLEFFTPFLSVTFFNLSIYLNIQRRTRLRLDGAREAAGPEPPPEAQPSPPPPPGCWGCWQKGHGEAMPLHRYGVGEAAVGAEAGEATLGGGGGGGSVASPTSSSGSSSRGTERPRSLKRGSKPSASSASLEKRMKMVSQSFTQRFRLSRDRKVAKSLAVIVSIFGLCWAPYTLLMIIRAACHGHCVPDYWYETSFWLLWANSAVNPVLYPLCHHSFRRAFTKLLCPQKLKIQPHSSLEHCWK
# Chain of Histamine H3 receptor (Rattus norvegicus, UniProt Q9QYN8) (Q9QYN8 whole entry): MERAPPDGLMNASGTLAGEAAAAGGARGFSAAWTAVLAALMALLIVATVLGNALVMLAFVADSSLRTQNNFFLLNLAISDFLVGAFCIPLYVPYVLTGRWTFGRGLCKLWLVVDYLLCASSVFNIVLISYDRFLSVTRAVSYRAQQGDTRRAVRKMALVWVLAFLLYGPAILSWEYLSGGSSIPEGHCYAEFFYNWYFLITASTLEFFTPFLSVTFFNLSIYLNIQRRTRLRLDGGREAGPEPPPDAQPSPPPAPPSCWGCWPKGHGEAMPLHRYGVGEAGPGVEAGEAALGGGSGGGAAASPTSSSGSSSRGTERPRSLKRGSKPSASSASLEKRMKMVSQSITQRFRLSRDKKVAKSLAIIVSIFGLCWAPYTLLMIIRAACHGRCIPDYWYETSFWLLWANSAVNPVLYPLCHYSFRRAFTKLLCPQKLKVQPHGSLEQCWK
# Chain of Histamine H1 receptor (P35367 whole entry): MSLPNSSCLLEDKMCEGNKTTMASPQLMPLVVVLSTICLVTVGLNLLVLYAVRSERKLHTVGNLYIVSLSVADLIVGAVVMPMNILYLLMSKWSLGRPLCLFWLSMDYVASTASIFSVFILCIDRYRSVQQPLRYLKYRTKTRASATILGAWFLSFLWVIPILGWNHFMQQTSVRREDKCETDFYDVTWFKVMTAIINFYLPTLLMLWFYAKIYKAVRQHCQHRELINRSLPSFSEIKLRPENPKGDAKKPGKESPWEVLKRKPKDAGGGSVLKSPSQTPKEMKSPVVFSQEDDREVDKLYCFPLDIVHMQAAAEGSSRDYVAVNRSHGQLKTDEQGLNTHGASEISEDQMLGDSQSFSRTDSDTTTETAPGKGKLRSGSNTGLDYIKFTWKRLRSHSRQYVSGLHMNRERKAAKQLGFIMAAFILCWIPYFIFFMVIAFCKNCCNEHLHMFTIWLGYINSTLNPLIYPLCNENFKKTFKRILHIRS
# Chain of Voltage-gated inwardly rectifying potassium channel KCNH2 (Q12809 whole entry): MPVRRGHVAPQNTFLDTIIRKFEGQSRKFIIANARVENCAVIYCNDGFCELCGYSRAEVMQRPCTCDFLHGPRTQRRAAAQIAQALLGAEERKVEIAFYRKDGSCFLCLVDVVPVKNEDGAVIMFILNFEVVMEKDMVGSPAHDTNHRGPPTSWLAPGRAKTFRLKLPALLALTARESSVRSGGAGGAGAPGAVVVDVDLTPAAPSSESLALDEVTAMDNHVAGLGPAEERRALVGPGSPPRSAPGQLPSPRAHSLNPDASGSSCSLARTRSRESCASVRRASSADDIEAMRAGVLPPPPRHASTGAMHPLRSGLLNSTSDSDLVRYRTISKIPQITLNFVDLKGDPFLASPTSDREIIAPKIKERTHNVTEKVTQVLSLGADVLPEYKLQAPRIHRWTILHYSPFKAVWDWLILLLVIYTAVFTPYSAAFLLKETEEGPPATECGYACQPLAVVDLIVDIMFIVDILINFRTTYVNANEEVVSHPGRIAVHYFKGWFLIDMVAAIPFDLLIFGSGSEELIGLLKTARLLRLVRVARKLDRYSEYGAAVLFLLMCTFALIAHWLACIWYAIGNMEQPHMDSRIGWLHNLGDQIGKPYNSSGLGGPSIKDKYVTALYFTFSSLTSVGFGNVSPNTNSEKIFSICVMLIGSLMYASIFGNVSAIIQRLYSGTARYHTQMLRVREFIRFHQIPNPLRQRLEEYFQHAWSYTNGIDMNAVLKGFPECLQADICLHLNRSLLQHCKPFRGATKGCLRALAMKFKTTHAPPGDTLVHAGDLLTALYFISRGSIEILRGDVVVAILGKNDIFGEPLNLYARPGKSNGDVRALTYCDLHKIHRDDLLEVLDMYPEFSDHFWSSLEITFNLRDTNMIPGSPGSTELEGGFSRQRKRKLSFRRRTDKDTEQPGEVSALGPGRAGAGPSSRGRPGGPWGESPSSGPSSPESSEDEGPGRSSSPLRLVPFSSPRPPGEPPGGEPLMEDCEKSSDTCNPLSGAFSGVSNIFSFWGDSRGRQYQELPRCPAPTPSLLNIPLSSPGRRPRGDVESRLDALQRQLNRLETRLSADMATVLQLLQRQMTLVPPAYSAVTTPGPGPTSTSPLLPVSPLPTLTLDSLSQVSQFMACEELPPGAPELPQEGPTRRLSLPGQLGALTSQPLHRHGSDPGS
# T2 sequence (Q12809 whole entry): as above
# Chain of Histamine H2 receptor (Homo sapiens) (P25021 whole entry): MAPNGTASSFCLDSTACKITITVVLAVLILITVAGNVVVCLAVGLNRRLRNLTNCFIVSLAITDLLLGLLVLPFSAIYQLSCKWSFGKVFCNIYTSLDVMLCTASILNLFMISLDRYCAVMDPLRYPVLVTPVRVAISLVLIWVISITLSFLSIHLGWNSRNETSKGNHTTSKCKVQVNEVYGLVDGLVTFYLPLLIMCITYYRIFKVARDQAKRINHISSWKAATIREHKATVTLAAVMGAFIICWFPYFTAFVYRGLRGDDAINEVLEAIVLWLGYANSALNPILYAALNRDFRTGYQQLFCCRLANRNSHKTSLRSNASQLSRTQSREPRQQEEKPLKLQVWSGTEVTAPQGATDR
structure (smiles),measurement,setting,value
Cc1cc(N2CCC(N3CCCC3C)C2)ccc1NC(=O)c1ccc(Cl)cc1 (stereo unspecified),metabolised,[1],33%
same,metabolised,[2],22%
same,metabolised,[3],32%
same,Ki,[4],2.6 nM
Cc1ccc(F)cc1C(=O)Nc1ccc(N2CCC(N3CCCC3C)C2)cc1C(F)(F)F (stereo unspecified),Ki,[4],4 nM
Cc1cc(N2CCC(N3CCCC3C)C2)ccc1NC(=O)c1cc(F)ccc1C (stereo unspecified),Activity,[5],inactive
same,Activity,Mus musculus [6],Dose-dependent effect
same,Activity,Mus musculus [7],30.4%
same,Activity,Mus musculus [8],39.6%
same,Activity,Mus musculus [9],59.8%
same,IC50,[10],480 nM
same,solubility,[11],2670 µg/mL
same,Ki,Histamine H1 receptor,> 9300 nM
same,EC50,[12],1.1 nM
same,Ki,Histamine H3 receptor [13],16.5 nM
same,Ki,Histamine H3 receptor [14],8.6 nM
same,metabolised,[1],38%
same,metabolised,[3],5%
same,Ki,[4],1.2 nM
same,Papp,[15],9.19 ×10⁻⁶ cm/s
Cc1ccc(F)cc1C(=O)Nc1ccc(N2CCC(N3CCCC3C)C2)cc1 (stereo unspecified),Ki,[4],4.7 nM
Cc1cc(N2CCC(N3CCCC3C)C2)ccc1NC(=O)c1ccc(C#N)cc1 (stereo unspecified),Ki,[4],11.3 nM
Cc1cc(N2CCC(N3CCCC3C)C2)ccc1NC(=O)c1cccc(F)c1 (stereo unspecified),Ki,[4],12.1 nM
Cc1cc(N2CCC(N3CCCC3C)C2)ccc1NC(=O)c1cccnc1 (stereo unspecified),metabolised,[1],57%
same,metabolised,[2],30%
same,metabolised,[3],9%
same,Ki,[4],10.1 nM
Cc1cc(N2CCC(CN3CCCC3C)C2)ccc1NC(=O)c1ccc(CO)cc1 (stereo unspecified),Ki,[4],62.1 nM
CC1CCCN1C1CCN(c2ccc(NC(=O)c3ccccc3F)c(C(F)(F)F)c2)C1 (stereo unspecified),metabolised,[1],45%
same,metabolised,[2],44%
same,metabolised,[3],14%
same,Ki,[4],16.9 nM
CC1CCCN1C1CCN(c2ccc(NC(=O)c3cccc(F)c3)cc2)C1 (stereo unspecified),Ki,[4],10.6 nM
Cc1cc(N2CCC(N3CCCC3C)C2)ccc1NC(=O)c1ccc(-c2ccncc2)cc1 (stereo unspecified),Ki,[4],26.7 nM
CC1CCCN1C1CCN(c2ccc(NC(=O)c3ccc(CN4CCOCC4)cc3)cc2)C1 (stereo unspecified),Ki,[4],70.2 nM
Cc1cc(C(=O)Nc2ccc(N3CCC(N4CCCC4C)C3)cc2)n[nH]1 (stereo unspecified),metabolised,[1],37%
same,metabolised,[2],16%
same,metabolised,[3],2%
same,Ki,[4],44.5 nM
same,Papp,[15],9.19 ×10⁻⁶ cm/s
Cc1cc(N2CCC(N3CCCC3C)C2)ccc1NC(=O)c1cc2ccccc2[nH]1 (stereo unspecified),Ki,[4],71.1 nM
COc1ccc(C(=O)Nc2ccc(N3CCC(N4CCCC4C)C3)cc2)cc1 (stereo unspecified),Ki,[4],17.6 nM
Cc1cc(C)n(-c2ccc(C(=O)Nc3ccc(N4CCC(N5CCCC5C)C4)cc3C)cc2)n1 (stereo unspecified),metabolised,[1],79%
same,metabolised,[2],89%
same,metabolised,[3],87%
same,Ki,[4],4.3 nM
Cc1cc(N2CCC(N3CCCC3C)C2)ccc1NC(=O)c1ccc(-c2ccccn2)cc1 (stereo unspecified),Ki,[4],12.2 nM
Cc1cc(N2CCC(N3CCCC3C)C2)ccc1NC(=O)c1ccc2[nH]ccc2c1 (stereo unspecified),Ki,[4],30.4 nM
Cc1cc(N2CCC(N3CCCC3C)C2)ccc1NC(=O)c1ccc(Oc2nccs2)cc1 (stereo unspecified),Ki,[4],24 nM
Cc1cc(NC(=O)c2cc(Cl)cc(Cl)c2)ccc1N1CCC(N2CCCC2C)C1 (stereo unspecified),Ki,[4],54 nM
Cc1cc(N2CCC(N3CCCC3C)C2)ccc1NC(=O)c1ccc(CO)cc1 (stereo unspecified),Ki,[4],12.7 nM
Cc1cc(NC(=O)c2cccs2)ccc1N1CCC(N2CCCC2C)C1 (stereo unspecified),Ki,[4],19.9 nM
CC1CCCN1C1CCN(c2ccc(NC(=O)c3ccc(N(C)C)cc3)cc2)C1 (stereo unspecified),Ki,[4],33.5 nM
CC1CCCN1C1CCN(c2ccc(NC(=O)c3ccc(Cl)cc3)cc2)C1 (stereo unspecified),inhibition at 10 µM,hERG (KCNH2) [16],95%
same,inhibition at 1 µM,hERG (KCNH2) [17],19.9%
same,metabolised,[1],90%
same,metabolised,[2],43%
same,metabolised,[3],20%
same,Ki,[4],4.7 nM
Cc1cc(N2CCC(N3CCCC3C)C2)ccc1NC(=O)c1ccc(-n2cccn2)cc1 (stereo unspecified),Ki,[4],39.1 nM
CC1CCCN1C1CCN(c2ccc(NC(=O)c3ccccc3N(C)C)cc2)C1 (stereo unspecified),Ki,[4],13.8 nM
Cc1cc(N2CCC(CN3CCCC3C)C2)ccc1NC(=O)c1ccc2[nH]ccc2c1 (stereo unspecified),Ki,[4],45 nM
Cc1cc(N2CCC(N3CCCC3C)C2)ccc1NC(=O)c1ccc(-c2cccnc2)cc1 (stereo unspecified),Ki,[4],18.8 nM
Cc1cc(N2CCC(N3CCCC3C)C2)ccc1NC(=O)c1ccc(C)c(S(C)(=O)=O)c1 (stereo unspecified),Ki,[4],11.9 nM
Cc1cc(NC(=O)c2c(C)noc2C)ccc1N1CCC(N2CCCC2C)C1 (stereo unspecified),Ki,[4],3.2 nM
Cc1cc(N2CCC(N3CCCC3C)C2)ccc1NC(=O)c1ccc(Oc2ccccn2)cc1 (stereo unspecified),Ki,[4],22.8 nM
Cc1cc(N2CCC(N3CCCC3C)C2)ccc1NC(=O)c1ccccc1F (stereo unspecified),Activity,[5],inactive
same,IC50,[10],1000 nM
same,Ki,Histamine H1 receptor,> 9300 nM
same,EC50,[12],2.9 nM
same,Ki,Histamine H3 receptor [13],55.4 nM
same,Ki,Histamine H3 receptor [14],13.8 nM
same,metabolised,[1],28%
same,metabolised,[3],15%
same,Ki,[4],5.8 nM
same,Papp,[15],9.24 ×10⁻⁶ cm/s
CC1CCCN1C1CCN(c2ccc(NC(=O)c3cc(Cl)cc(Cl)c3)cc2)C1 (stereo unspecified),inhibition,Histamine H3 receptor [18],119%
same,IC50,Histamine H3 receptor [19],0.48 nM
same,Ki,[4],49.5 nM
CC1CCCN1C1CCN(c2ccc(NC(=O)c3cccc(N(C)C)c3)cc2)C1 (stereo unspecified),Ki,[4],33.3 nM
Cc1cc(N2CCC(N3CCCC3C)C2)ccc1NC(=O)c1cccs1 (stereo unspecified),Ki,[4],12.4 nM
CC1CCCN1C1CCN(c2ccc(NC(=O)c3ccccc3F)cc2)C1 (stereo unspecified),metabolised,[1],48%
same,metabolised,[2],31%
same,metabolised,[3],12%
same,Ki,[4],8.2 nM
Cc1cc(N2CC3CC4CCCN4C3C2)ccc1NC(=O)c1cc(F)ccc1C (stereo unspecified),Ki,[4],908 nM
Cc1cc(N2CCC(N3CCCC3C)C2)ccc1NC(=O)c1ccc(S(C)(=O)=O)cc1 (stereo unspecified),Ki,[4],25.6 nM
Cc1cc(N2CCC(N3CCCC3C)C2)ccc1NC(=O)c1c(C)noc1C (stereo unspecified),Ki,[4],2.6 nM
Cc1cc(NC(=O)c2ccc(Cl)cc2)ccc1N1CCC(N2CCCC2C)C1 (stereo unspecified),metabolised,[1],90%
same,metabolised,[2],43%
same,metabolised,[3],29%
same,Ki,[4],4.8 nM
Cc1cc(N2CCC(N3CCCC3C)C2)ccc1NC(=O)c1ccc(-n2cncn2)cc1 (stereo unspecified),Ki,[4],8.1 nM
Cc1cc(N2CCC(N3CCCC3C)C2)ccc1NC(=O)c1ccc(N2CCOCC2)cc1 (stereo unspecified),Ki,[4],44 nM
CC1CCCN1C1CCN(c2ccc(NC(=O)c3cn[nH]c3)cc2)C1 (stereo unspecified),Ki,[4],22.1 nM
Cc1cc(N2CCC(N3CCCC3C)C2)ccc1NC(=O)c1cc(Cl)cc(Cl)c1 (stereo unspecified),Ki,[4],24.1 nM
Cc1cc(N2CCC(CN3CCCC3C)C2)ccc1NC(=O)c1ccc2cc[nH]c2c1 (stereo unspecified),Ki,[4],18 nM
Cc1cc(N2CCC(N3CCCC3C)C2)ccc1NC(=O)c1cn[nH]c1 (stereo unspecified),metabolised,[1],28%
same,metabolised,[2],16%
same,metabolised,[3],2%
same,Ki,[4],24.7 nM
same,Papp,[15],0.35 ×10⁻⁶ cm/s
CC1CCCN1C1CCN(c2ccc(NC(=O)c3cccs3)cc2)C1 (stereo unspecified),Ki,[4],14 nM
Cc1cc(N2CCC(CN3CCCC3C)C2)ccc1NC(=O)c1ccc(-n2cccc2)cc1 (stereo unspecified),Ki,[4],3.1 nM
CC1CCCN1C1CCN(c2ccc(NC(=O)c3cccc(F)c3)c(C(F)(F)F)c2)C1 (stereo unspecified),Ki,[4],40 nM
Cc1noc(C)c1C(=O)Nc1ccc(N2CCC(N3CCCC3C)C2)cc1 (stereo unspecified),metabolised,[1],24%
same,metabolised,[2],12%
same,metabolised,[3],13%
same,Ki,[4],2.1 nM
Cc1cc(NC(=O)c2cn[nH]c2)ccc1N1CCC(N2CCCC2C)C1 (stereo unspecified),Ki,[4],126 nM
Cc1cc(N2CCC(CN3CCCC3C)C2)ccc1NC(=O)c1ccc(C)c(S(C)(=O)=O)c1 (stereo unspecified),Ki,[4],29 nM
Cc1cc(N2CCC(N3CCCC3C)C2)ccc1NC(=O)c1ccc2cc[nH]c2c1 (stereo unspecified),metabolised,[1],64%
same,metabolised,[2],21%
same,metabolised,[3],16%
same,Ki,[4],15.1 nM
same,Papp,[15],7.81 ×10⁻⁶ cm/s
